Laboratory results published in paper PMC10654507, “A cleavable chimeric peptide with targeting and killing domains enhances LPS neutralization and antibacterial properties against multi-drug resistant E. coli” (Communications Biology, 2023).
In brackets after ≈: the same amount, converted by molar mass. Like-named read-outs stand apart in the source and are kept apart here. Residues, ends and D or L forms follow the SMILES beside them. No end group written: not given here.

Experiments:
S. typhimurium CVCC533 = type: cell-based, Salmonella typhimurium
Method: (§1) The minimum inhibitory concentration (MIC) and minimum bactericidal concentration (MBC) of peptides were determined by the microtiter broth dilution method according to Clinical and Laboratory Standards Institute (CLSI) guidelines. […] PBS was used as the negative control. […] The MBC value was calculated as the lowest concentration of peptides resulting in a 99.9% reduction of the original inoculum. All experiments were repeated three times.

[1] = test system: Staphylococcus aureus ATCC43300; type: cell-based; conditions: ATCC43300, 18 h
Method: as §1

Escherichia coli CVCC195 = type: cell-based
Method: as §1

S. aureus CVCC546 = type: cell-based, Staphylococcus aureus
Method: as §1

[2] = test system: E. coli, S. typhimurium and S. aureus; type: cell-based; conditions: 18 h
Method: as §1

E. coli 0111: B4 LPS = test: BC (BODIPY-TR-cadaverine) displacement assay, binding to LPS; design: species or system Escherichia coli; unit not given here; conditions: Fig. 4a source data, mean
Method: The binding of peptides to LPS was determined according to the method described previously[34],[59]. In brief, E. coli 0111: B4 LPS (40 μg/mL) and BODIPY-TR-cadaverine (BC) (10 μM) were mixed in 50 mM Tris buffer (pH = 7.4) in equal proportions and added to a 96-well black plate (180 μL/well) in the dark. Different concentrations of chimeric peptide R7 and its parental (20 μL) were added into each well and detected by a fluorescence spectrophotometry at room temperature (excitation wavelength 580 nm, emission wavelength 620 nm). The change in relative fluorescence was recorded and the BC displacement rate was calculated. Polymycin B (PMB) was used as the positive control.

[3] = lowest concentration giving 99.9% reduction of the inoculum, repeated three times
[4] = microtiter broth dilution, 10^5 CFU/mL, 37 °C, 16 ~ 18 h, repeated three times

Compound | MIC (S. typhimurium CVCC533; CVCC533, 18 h) | MIC [1] | MBC (Escherichia coli CVCC195; CVCC195, 18 h) | MIC (Escherichia coli CVCC195; CVCC195, 18 h) | MBC (S. aureus CVCC546; CVCC546, 18 h) | MIC (S. aureus CVCC546; CVCC546, 18 h) | MBC [1] | further results
CC(C)[C@H](NC(=O)[C@H](CCCCN)NC(=O)[C@H](Cc1c[nH]c2ccccc12)NC(=O)[C@H](CCCNC(=N)N)NC(=O)CNC(=O)[C@H](CCC(N)=O)NC(=O)[C@@H](NC(=O)[C@@H](N)CCCNC(=N)N)C(C)C)C(=O)N[C@@H](CCCNC(=N)N)C(=O)N[C@@H](C)C(=O)N[C@@H](CO)C(=O)N[C@@H](Cc1ccccc1)C(=O)N[C@@H](Cc1ccccc1)C(=O)N[C@@H](CCCCN)C(=O)N[C@@H](CCCNC(=N)N)C(=O)N[C@@H](CCCCN)C(=O)N[C@@H](CCCNC(=N)N)C(=O)N[C@@H](CCCNC(=N)N)C(=O)O [LBP14-RKRR] (H-RVQGRWKVRASFFKRKRR-OH) | 4.53 µM (≈ 10.7 µg/mL) | 4.53 µM (≈ 10.7 µg/mL) | 2.26 µM (≈ 5.34 µg/mL) | 2.26 µM (≈ 5.34 µg/mL) | 9.06 µM (≈ 21.4 µg/mL) | 9.06 µM (≈ 21.4 µg/mL) |  | 
RVQGRWKVRASFFKEAAAKEAAAKFKAWRWAWRMKKLAAPS [A7] | >36.2 µM | >36.2 µM | 36.2 µM | 36.2 µM | >36.2 µM | >36.2 µM | >36.2 µM | MBC (S. typhimurium CVCC533; CVCC533, 18 h): >36.2 µM; antibacterial activity (MIC) [2]: ≥ 18.1 µM
polymyxin B [PMB, reference compound] |  |  |  |  |  |  |  | binding affinity to LPS (E. coli 0111: B4 LPS; peptide concentration 0.05 μM): 10.8258; binding affinity to LPS (E. coli 0111: B4 LPS; peptide concentration 0.1 μM): 13.138; binding affinity to LPS (E. coli 0111: B4 LPS; peptide concentration 0.5 μM): 19.3303; binding affinity to LPS (E. coli 0111: B4 LPS; peptide concentration 1 μM): 24.2435; binding affinity to LPS (E. coli 0111: B4 LPS; peptide concentration 5 μM): 53.9917; binding affinity to LPS (E. coli 0111: B4 LPS; peptide concentration 10 μM): 65.3662; binding affinity to LPS (E. coli 0111: B4 LPS; peptide concentration 50 μM): 89.1421; binding affinity to LPS (E. coli 0111: B4 LPS; peptide concentration 100 μM): 85.6684; MBC (S. typhimurium CVCC533; [3]): 8 µM; MIC (S. typhimurium CVCC533; [4]): 8 µM; MBC (Escherichia coli CVCC195; [3]): 1 µM; MIC (Escherichia coli CVCC195; [4]): 1 µM; MBC (S. aureus CVCC546; [3]): >64 µM; MIC (S. aureus CVCC546; [4]): >64 µM
CSCC[C@H](NC(=O)[C@H](CCCNC(=N)N)NC(=O)[C@H](Cc1c[nH]c2ccccc12)NC(=O)[C@H](C)NC(=O)[C@H](Cc1c[nH]c2ccccc12)NC(=O)[C@H](CCCNC(=N)N)NC(=O)[C@H](Cc1c[nH]c2ccccc12)NC(=O)[C@H](C)NC(=O)[C@H](CCCCN)NC(=O)[C@H](Cc1ccccc1)NC(=O)[C@@H](N)CCCNC(=N)N)C(=O)N[C@@H](CCCCN)C(=O)N[C@@H](CCCCN)C(=O)N[C@@H](CC(C)C)C(=O)N[C@@H](C)C(=O)N[C@@H](C)C(=O)N1CCC[C@H]1C(=O)N[C@@H](CO)C(=O)O [R-L7] (H-RFKAWRWAWRMKKLAAPS-OH) | 18.1 µM (≈ 41.4 µg/mL) | 18.1 µM (≈ 41.4 µg/mL) |  | 2.26 µM (≈ 5.17 µg/mL) |  | 18.1 µM (≈ 41.4 µg/mL) |  | 
CSCC[C@H](NC(=O)[C@H](CCCNC(=N)N)NC(=O)[C@H](Cc1c[nH]c2ccccc12)NC(=O)[C@H](C)NC(=O)[C@H](Cc1c[nH]c2ccccc12)NC(=O)[C@H](CCCNC(=N)N)NC(=O)[C@H](Cc1c[nH]c2ccccc12)NC(=O)[C@H](C)NC(=O)[C@H](CCCCN)NC(=O)[C@H](Cc1ccccc1)NC(=O)[C@H](CO)NC(=O)CNC(=O)CNC(=O)CNC(=O)CNC(=O)[C@H](CCCCN)NC(=O)[C@H](Cc1ccccc1)NC(=O)[C@H](Cc1ccccc1)NC(=O)[C@H](CO)NC(=O)[C@H](C)NC(=O)[C@H](CCCNC(=N)N)NC(=O)[C@@H](NC(=O)[C@H](CCCCN)NC(=O)[C@H](Cc1c[nH]c2ccccc12)NC(=O)[C@H](CCCNC(=N)N)NC(=O)CNC(=O)[C@H](CCC(N)=O)NC(=O)[C@@H](NC(=O)[C@@H](N)CCCNC(=N)N)C(C)C)C(C)C)C(=O)N[C@@H](CCCCN)C(=O)N[C@@H](CCCCN)C(=O)N[C@@H](CC(C)C)C(=O)N[C@@H](C)C(=O)N[C@@H](C)C(=O)N1CCC[C@H]1C(=O)N[C@@H](CO)C(=O)O [G7] (H-RVQGRWKVRASFFKGGGGSFKAWRWAWRMKKLAAPS-OH) | >36.2 µM | >36.2 µM | 18.1 µM (≈ 75.9 µg/mL) | 18.1 µM (≈ 75.9 µg/mL) | >36.2 µM | >36.2 µM | >36.2 µM | antibacterial activity (MIC) [2]: ≥ 18.1 µM
CC(C)[C@H](NC(=O)[C@H](CCCCN)NC(=O)[C@H](Cc1c[nH]c2ccccc12)NC(=O)[C@H](CCCNC(=N)N)NC(=O)CNC(=O)[C@H](CCC(N)=O)NC(=O)[C@@H](NC(=O)[C@@H](N)CCCNC(=N)N)C(C)C)C(=O)N[C@@H](CCCNC(=N)N)C(=O)N[C@@H](C)C(=O)N[C@@H](CO)C(=O)N[C@@H](Cc1ccccc1)C(=O)N[C@@H](Cc1ccccc1)C(=O)N[C@@H](CCCCN)C(=O)N[C@@H](CCCNC(=N)N)C(=O)N[C@@H](CCCCN)C(=O)N[C@@H](CCCNC(=N)N)C(=O)O [LBP14-RKR] (H-RVQGRWKVRASFFKRKR-OH) | 4.53 µM (≈ 9.99 µg/mL) | 4.53 µM (≈ 9.99 µg/mL) |  | 2.26 µM (≈ 4.98 µg/mL) |  | 9.06 µM (≈ 20 µg/mL) |  | 
CC(C)[C@H](NC(=O)[C@H](CCCCN)NC(=O)[C@H](Cc1c[nH]c2ccccc12)NC(=O)[C@H](CCCNC(=N)N)NC(=O)CNC(=O)[C@H](CCC(N)=O)NC(=O)[C@@H](NC(=O)[C@@H](N)CCCNC(=N)N)C(C)C)C(=O)N[C@@H](CCCNC(=N)N)C(=O)N[C@@H](C)C(=O)N[C@@H](CO)C(=O)N[C@@H](Cc1ccccc1)C(=O)N[C@@H](Cc1ccccc1)C(=O)N[C@@H](CCCCN)C(=O)O [LBP14, reference compound] (H-RVQGRWKVRASFFK-OH) | 18.1 µM (≈ 31.9 µg/mL) | 36.2 µM (≈ 63.9 µg/mL) | 4.53 µM (≈ 8 µg/mL) | 4.53 µM (≈ 8 µg/mL) | >36.2 µM | 36.2 µM (≈ 63.9 µg/mL) | 36.2 µM (≈ 63.9 µg/mL) | MBC (S. typhimurium CVCC533; CVCC533, 18 h): 18.1 µM (≈ 31.9 µg/mL)
